Laboratory results from paper PMC10279719 (Nature Communications, 2023).
pKd: −log10 of the molar value.

Legend:
14-3-3η = biological target: T1, 14-3-3η (Homo sapiens, UniProt Q04917); test: SPR, PEAK tandem peptides binding to immobilised 14-3-3η; details: peptide analyte over amine-coupled 14-3-3η (CM5); Biacore S200, HBS-TP pH 7.4, 20 °C; steady-state 1:1 fit; mean ± S.E.M.; read-out: SPR KD, 14-3-3η (eta)
T1 construct: 14-3-3η (UniProt Q04917-1; residues 1–246); 8-His tag with TEV protease cleavage site (N); made in house; host or cells: E. coli C41 (DE3)
T1 sequence (Q04917 1-246): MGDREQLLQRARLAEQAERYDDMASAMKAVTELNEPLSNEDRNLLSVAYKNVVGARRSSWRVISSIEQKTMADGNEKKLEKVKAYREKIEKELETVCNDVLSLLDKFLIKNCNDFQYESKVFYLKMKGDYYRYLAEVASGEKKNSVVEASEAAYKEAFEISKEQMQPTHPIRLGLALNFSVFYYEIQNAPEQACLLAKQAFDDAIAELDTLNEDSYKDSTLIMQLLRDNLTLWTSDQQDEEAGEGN
Method: (§1) Purified […]3 was diluted to 5 μg ml^-1 in 10 mM sodium acetate pH 4.0 and amine coupled at 25 °C to a Series S CM5 sensor chip, in HBS-N running buffer (20 mM HEPES pH 7.4, 150 mM NaCl) to a final immobilization level of 1100-1400 response units (RU), followed by surface deactivation using 1 M ethanolamine. A blank activation/deactivation was used for the reference surface. […] Samples were injected in a multi-cycle run (flow rate 30 μl min^-1, contact time of 60 s, dissociation 120 s) without regeneration. Sensorgrams were double referenced, and steady-state binding data fitted using a 1:1 binding model using Biacore S200 Evaluation Software (Cytiva, v. 1.1). […] Representative sensorgrams and fitted dissociation constant (KD) values, depicted as mean ± S.E.M.

14-3-3γ = biological target: T2, 14-3-3γ (Homo sapiens, UniProt P61981); test: SPR, PEAK peptides binding to immobilised 14-3-3γ; details: peptide analyte over amine-coupled 14-3-3γ (CM5), Biacore S200, HBS-TP pH 7.4, 20 °C, steady-state 1:1 fit, mean ± S.E.M.
T2 construct: 14-3-3γ (UniProt P61981-1; residues 1–247); 8-His tag with TEV protease cleavage site (N); made in house; host or cells: E. coli C41 (DE3)
T2 sequence (P61981 1-247): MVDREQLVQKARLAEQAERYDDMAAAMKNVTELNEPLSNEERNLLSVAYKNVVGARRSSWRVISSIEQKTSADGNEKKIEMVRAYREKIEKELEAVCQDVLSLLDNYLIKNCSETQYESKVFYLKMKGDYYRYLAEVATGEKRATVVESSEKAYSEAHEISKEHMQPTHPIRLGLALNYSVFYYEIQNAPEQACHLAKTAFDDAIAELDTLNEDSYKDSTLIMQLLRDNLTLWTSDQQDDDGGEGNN
Method: as §1

pKd (14-3-3η): < 4.00
SPR KD, 14-3-3γ (gamma) (14-3-3γ): no appreciable binding
SPR KD, 14-3-3γ (gamma) (14-3-3γ; 54–74): No binding
pKd (14-3-3γ; read-out: SPR KD, 14-3-3γ (gamma)): < 4.00
Compound: CC[C@H](C)[C@H](NC(=O)[C@H](CCCCN)NC(=O)[C@H](CCCCN)NC(=O)[C@@H]1CCCN1C(=O)[C@H](CC(C)C)NC(=O)[C@@H]1CCCN1C(=O)[C@@H]1CCCN1C(=O)[C@@H]1CCCN1C(=O)[C@H](CC(C)C)NC(=O)[C@@H]1CCCN1C(C)=O)C(=O)N[C@@H](CC(C)C)C(=O)N[C@H](C(=O)N[C@@H](CCCNC(=N)N)C(=O)N[C@H](C(=O)N[C@@H](CCC(N)=O)C(=O)N[C@@H](CO)C(=O)N[C@@H](CC(C)C)C(=O)N1CCC[C@H]1C(=O)N[C@H](C(=O)N[C@@H](CCCNC(=N)N)C(=O)N[C@@H](CCCNC(=N)N)C(N)=O)[C@@H](C)O)[C@@H](C)O)[C@@H](C)O (single isomer, unassigned) [PEAK3^tandem]
